Experimental data taken from PubChem BioAssay (NCI).
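Assay format: 96-well plates, 48-hour exposure. At the GI50, growth is halved. The concentration for full growth arrest is given as TGI.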

What was measured:
Assay in all cases: inhibition of tumour cell growth, NCI panel, 48 h
[1] = tested on: 786-0 renal
[2] = tested on: A549 NSCLC
[3] = tested on: ACHN renal
[4] = tested on: BT-549 breast
[5] = tested on: CCRF-CEM leukemia
[6] = tested on: COLO 205 colon
[7] = tested on: DU-145 prostate
[8] = tested on: EKVX NSCLC
[9] = tested on: HCC-2998 colon
[10] = tested on: HCT-116 colon
[11] = tested on: HCT-15 colon
[12] = tested on: HL-60(TB) leukemia
[13] = tested on: HOP-62 NSCLC
[14] = tested on: HOP-92 NSCLC
[15] = tested on: HS 578T breast
[16] = tested on: HT29 colon
[17] = tested on: IGROV1 ovarian
[18] = tested on: K-562 leukemia
[19] = tested on: KM12 colon
[20] = tested on: LOX IMVI melanoma
[21] = tested on: M14 melanoma
[22] = tested on: MALME-3M melanoma
[23] = tested on: MCF7 breast
[24] = tested on: MDA-MB-231 breast
[25] = tested on: MDA-MB-435
[26] = tested on: MOLT-4 leukemia
[27] = tested on: NCI-H226 lung
[28] = tested on: NCI-H23 lung
[29] = tested on: NCI-H460 lung
[30] = tested on: NCI-H522 lung
[31] = tested on: NCI/ADR-RES ovarian
[32] = tested on: OVCAR-3 ovarian
[33] = tested on: OVCAR-5 ovarian
[34] = tested on: OVCAR-8 ovarian
[35] = tested on: PC-3 prostate
[36] = tested on: RPMI-8226 leukemia
[37] = tested on: RXF 393 renal
[38] = tested on: SF-268 CNS
[39] = tested on: SF-295 CNS
[40] = tested on: SF-539 CNS
[41] = tested on: SK-MEL-2 melanoma
[42] = tested on: SK-MEL-28 melanoma
[43] = tested on: SK-MEL-5 melanoma
[44] = tested on: SK-OV-3 ovarian
[45] = tested on: SN12C renal
[46] = tested on: SNB-19 CNS
[47] = tested on: SNB-75 CNS
[48] = tested on: SW-620 colon
[49] = tested on: T-47D breast
[50] = tested on: TK-10 renal
[51] = tested on: U251 CNS
[52] = tested on: UACC-257 melanoma
[53] = tested on: UACC-62 melanoma
[54] = tested on: UO-31 renal
[55] = tested on: CAKI-1 renal
[56] = tested on: OVCAR-4 ovarian
[57] = tested on: SR leukemia

O=C(/C=C/c1cccc(O)c1)c1cccc(-n2cc(-c3ccc4ccccc4c3)[nH]c2=O)c1
GI50 [1]: 1740 nM
TGI [1]: 3.13 µM
GI50 [2]: 3.38 µM
TGI [2]: 12.7 µM
GI50 [3]: 1570 nM
TGI [3]: 3.08 µM
GI50 [4]: 1890 nM
TGI [4]: 5.14 µM
GI50 [5]: 2030 nM
TGI [5]: > 100 µM
GI50 [6]: 2090 nM
TGI [6]: 4.65 µM
GI50 [7]: 1750 nM
TGI [7]: 3.65 µM
GI50 [8]: 2640 nM
TGI [8]: 13.9 µM
GI50 [9]: 2130 nM
TGI [9]: 5.11 µM
GI50 [10]: 407 nM
TGI [10]: 1450 nM
GI50 [11]: 1560 nM
TGI [11]: 4.8 µM
GI50 [12]: 1010 nM
TGI [12]: 3.21 µM
GI50 [13]: 2260 nM
TGI [13]: 4.29 µM
GI50 [14]: 518 nM
TGI [14]: 8.69 µM
GI50 [15]: 2010 nM
TGI [15]: 5.9 µM
GI50 [16]: 1530 nM
TGI [16]: 2870 nM
GI50 [17]: 1330 nM
TGI [17]: 2790 nM
GI50 [18]: 1430 nM
TGI [18]: 4.88 µM
GI50 [19]: 1210 nM
TGI [19]: 2.45 µM
GI50 [20]: 858 nM
TGI [20]: 2080 nM
GI50 [21]: 1490 nM
TGI [21]: 3.07 µM
GI50 [22]: 2080 nM
TGI [22]: 6.37 µM
GI50 [23]: 471 nM
TGI [23]: 1830 nM
GI50 [24]: 1660 nM
TGI [24]: 4.9 µM
GI50 [25]: 1710 nM
TGI [25]: 6.31 µM
GI50 [26]: 1270 nM
TGI [26]: 5.24 µM
GI50 [27]: 2430 nM
TGI [27]: 8.91 µM
GI50 [28]: 1520 nM
TGI [28]: 3.58 µM
GI50 [29]: 1670 nM
TGI [29]: 3.19 µM
GI50 [30]: 1290 nM
TGI [30]: 2.9 µM
GI50 [31]: 1550 nM
TGI [31]: 5.83 µM
GI50 [32]: 1330 nM
TGI [32]: 2.78 µM
GI50 [33]: 1890 nM
TGI [33]: 3.6 µM
GI50 [34]: 2330 nM
TGI [34]: > 100 µM
GI50 [35]: 1850 nM
TGI [35]: 7.9 µM
GI50 [36]: 1670 nM
TGI [36]: 6.91 µM
GI50 [37]: 1410 nM
TGI [37]: 3.07 µM
GI50 [38]: 1730 nM
TGI [38]: 3.55 µM
GI50 [39]: 1440 nM
TGI [39]: 3.63 µM
GI50 [40]: 1550 nM
TGI [40]: 2890 nM
GI50 [41]: 2310 nM
TGI [41]: 7.97 µM
GI50 [42]: 3.79 µM
TGI [42]: 12.4 µM
GI50 [43]: 1160 nM
TGI [43]: 2.41 µM
GI50 [44]: 2150 nM
TGI [44]: 6.73 µM
GI50 [45]: 1440 nM
TGI [45]: 3.56 µM
GI50 [46]: 1320 nM
TGI [46]: 4.13 µM
GI50 [47]: 1880 nM
TGI [47]: 5.93 µM
GI50 [48]: 223 nM
TGI [48]: 605 nM
GI50 [49]: 1110 nM
TGI [49]: 3.84 µM
GI50 [50]: 3.45 µM
TGI [50]: 8.53 µM
GI50 [51]: 1090 nM
TGI [51]: 2280 nM
GI50 [52]: 4.13 µM
TGI [52]: 18.4 µM
GI50 [53]: 1800 nM
TGI [53]: 4.92 µM
GI50 [54]: 1260 nM
TGI [54]: 2.64 µM

C/C(=C\CO)CC/C=C(\C)CNc1ccc([N+](=O)[O-])cc1
TGI [1]: > 100 µM
TGI [2]: > 100 µM
TGI [3]: > 100 µM
TGI [4]: 37.5 µM
TGI [55]: > 100 µM
TGI [6]: > 100 µM
TGI [7]: > 100 µM
TGI [8]: > 100 µM
TGI [10]: > 100000 nM
TGI [11]: > 100 µM
TGI [12]: 57.2 µM
TGI [13]: > 100 µM
TGI [15]: 71.6 µM
TGI [16]: > 100000 nM
TGI [17]: > 100000 nM
TGI [18]: 66.5 µM
TGI [19]: 64.2 µM
TGI [20]: > 100000 nM
TGI [21]: > 100 µM
TGI [22]: 34.6 µM
TGI [23]: > 100000 nM
TGI [24]: > 100 µM
TGI [25]: 84.9 µM
TGI [26]: 18.4 µM
TGI [27]: > 100 µM
TGI [28]: 57.7 µM
TGI [29]: > 100 µM
TGI [30]: 66.8 µM
TGI [31]: 64.5 µM
TGI [32]: 48.2 µM
TGI [56]: > 100 µM
TGI [33]: > 100 µM
TGI [34]: > 100 µM
TGI [35]: 66.2 µM
TGI [37]: > 100 µM
TGI [38]: > 100 µM
TGI [39]: > 100 µM
TGI [40]: > 100000 nM
TGI [41]: 79.5 µM
TGI [42]: > 100 µM
TGI [43]: 25.6 µM
TGI [44]: > 100 µM
TGI [45]: > 100 µM
TGI [46]: > 100 µM
TGI [47]: > 100 µM
TGI [57]: 27.1 µM
TGI [48]: > 100000 nM
TGI [49]: 80 µM
TGI [50]: 46.7 µM
TGI [51]: > 100000 nM
TGI [52]: 76.2 µM
TGI [53]: > 100 µM
TGI [54]: 45.9 µM
